Measured values as given in patent US12668568B2, “Adamantanyl-substituted benzamide compounds and their use as P2X7 receptor antagonists” (The University of Sydney, priority 2018, dated 2026).
Several values for one entry are separate records, joined by “and”; a condition that tells them apart may be missing. Identical values can stand only once. Like-named read-outs stand apart in the source and are kept apart here.

Key:
hP2X7R = target: T1, hP2X7R (Homo sapiens, UniProt Q99572); assay: Calcium influx assay in HEK-hP2X7 cells; type: cell-based; settings: HEK cells expressing hP2X7R, BzATP 100 μM; mean ± standard deviation, n >3
T1 sequence (Q99572 1-595): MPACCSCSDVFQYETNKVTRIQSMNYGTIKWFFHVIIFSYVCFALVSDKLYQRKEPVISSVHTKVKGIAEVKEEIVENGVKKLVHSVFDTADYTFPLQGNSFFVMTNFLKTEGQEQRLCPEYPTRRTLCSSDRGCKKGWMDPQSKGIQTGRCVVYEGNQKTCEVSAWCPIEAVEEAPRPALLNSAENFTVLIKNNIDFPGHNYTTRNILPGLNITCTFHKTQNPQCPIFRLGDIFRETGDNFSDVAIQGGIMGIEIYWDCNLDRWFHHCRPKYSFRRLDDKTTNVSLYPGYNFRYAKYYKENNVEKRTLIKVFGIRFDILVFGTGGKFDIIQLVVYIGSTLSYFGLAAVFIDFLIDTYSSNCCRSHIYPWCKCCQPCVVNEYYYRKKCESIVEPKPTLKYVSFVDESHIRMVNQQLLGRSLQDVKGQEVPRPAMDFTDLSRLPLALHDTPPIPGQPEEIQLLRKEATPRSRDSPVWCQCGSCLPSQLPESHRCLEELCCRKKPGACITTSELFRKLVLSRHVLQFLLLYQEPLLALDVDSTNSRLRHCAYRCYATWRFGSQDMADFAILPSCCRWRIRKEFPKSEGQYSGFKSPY
Procedure: HEK293T cells transfected with cDNA for the human (HEK-hP2X7) or mouse P2X7 (HEK-mP2X7) receptor (a kind gift from Dr […] Stokes and Prof. Jim Wiley) were cultured in DMEM/F12 with 10% FBS and 500 μg/mL G418 (all from Invitrogen). […] HEK-hP2X7 or HEK-mP2X7 cells were harvested using trypsin (0.05%) with EDTA (0.03%). Cells were loaded with Fluo-4 AM (1 μM) in HBSS buffer at 37° C. for 30 min, inverting every 5 mins. […] Fluorescence was then monitored every 5 s for 5 min total monitoring. […] Data were normalized to the peak response seen with BzATP alone and the basal response seen due to injection of vehicle (see FIG. 3).

[1] = Liver microsome stability; type: in vitro ADME; settings: liver microsomes, rat liver microsome, 37° C., read-out: Liver microsome T1/2 (converted)
From the text: Microsomes are vesicles of endoplasmic reticulum isolated from liver homogenate following differential centrifugation. They contain drug metabolising enzymes including the cytochromes P450 (CYP) responsible for a majority of drug metabolism. They also contain the phase II metabolising enzyme responsible for glucuronidation—uridine diphosphate glucuronyltransferase (UDPGT). As they contain many of the drug metabolizing enzymes found in the liver they are useful in vitro models of hepatic clearance. Assays are performed by incubating drugs of interest at a concentration of 1 μM with the microsomes at 37° C. The disappearance of the test compound is monitored at fixed points over a period of 60 minutes and samples analysed using LC-MSMS. The resulting data can be used to determine: • 1. Intrinsic clearance. These values can be used to categorise compounds into bands of high, medium or low clearance. Generally compounds with high clearances are considered to be less favourable as they are likely to be cleared more rapidly in vivo resulting in a short duration of action. • 2. Rank order compounds in order of microsomal stability by calculating half-life. Cytochrome Profiling […]

[2] = Plasma protein binding, rapid equilibrium dialysis; type: in vitro ADME; settings: rat plasma, 4 hours 37° C., read-out: pb (% bound) Plasma (converted)
Procedure: (§1) Determining the extent to which a molecule binds to factors present within plasma and brain is a critical phase of drug development as this determines not only the free unbound fraction available to exert the desired pharmacological actions but also influences dosing, clearance rate and the potential for drug-drug interactions. Binding is measured with the rapid equilibrium dialysis technique using cartridges consisting of two compartments (sample and buffer chamber) separated by a dialysis membrane.
(§2) All compounds are prepared in 100% DMSO to provide 10 mM stock solutions. Sample material is prepared by spiking a known volume of plasma or brain with the stock solution such that the final concentration of compound is 1 μM. This is placed in the sample chamber of the dialysis cartridge. Dialysis buffer is then added to the buffer chamber and the cartridge incubated at 37° C. for 4 hours. Following the incubation the test compound concentrations are determined in the two chambers and the % free or bound component calculated using the equation below:
(§3) [formula] [formula] In Vivo Pharmacokinetic Studies

[3] = Brain tissue binding, rapid equilibrium dialysis; type: in vitro ADME; settings: rat brain tissue, 4 hours 37° C., read-out: pb (% bound) Brain (converted)
Procedure: as §1, §2, §3

[4] = In vivo pharmacokinetic study, intravenous bolus; settings: rat, 1 mg/kg intravenous bolus; for AUC / AUC(0-inf) / clearance / Tmax / Vd / Cmax / half-life: male, Hans Wistar
Procedure: Male Hans Wistar rats were purchased from Charles River Laboratories UK. During the acclimatisation period the rats were group housed in cages of three and maintained under a 12 hour light/dark cycle with free access to food and water. Temperature and humidity were controlled according to UK Home Office regulations.
All compounds were formulated immediately prior to dosing in 10% DMSO, 20% Cremophor EL, 70% saline to provide 1 mg/ml solutions. Each rat received a weight corrected dose of formulated drug at 1 mg/kg administered by intravenous bolus injection via a lateral tail vein.
Terminal plasma and brain samples were collected from n=3 animals at specified time points (0.017, 0.083, 0.25, 0.5, 1, 2, 4 and 6 hours following dose administration).
Drug quantification was performed using liquid chromatography-tandem mass spectrometry using electrospray ionisation. Pharmacokinetic parameters were calculated using Phoenix WinNonlin software.

[5] = brain, read-out: T1/2 Brain (converted)
[6] = plasma, read-out: T1/2 Plasma (converted)

Compound: COc1ccc(Cl)c(C(=O)NCC23CC4CC(CC(C4)C2)C3)c1 [Compound 31, reference compound]
- IC50 (hP2X7R): 26 nM and 25.7 nM
- half-life at 1 μM [1]: 7.8 min
- fraction unbound at 4 h, 1 μM [2]: 0.0079
- fraction unbound at 4 h, 1 μM [3]: 0.0027
- AUC ([4]; brain, read-out: AUC6 Brain): 221 ng·h/mL
- AUC(0-inf) ([4]; brain, read-out: AUC∞ Brain): 246 ng·h/mL
- clearance ([4]; brain, read-out: Cl Brain): 67.8 mL/min/kg
- Tmax ([4]; brain, read-out: Tmax Brain): 1.2 min
- Vd ([4]; brain, read-out: Vd Brain): 0.77 L/kg
- Cmax ([4]; plasma): 1190 ng/mL
- AUC ([4]; plasma, read-out: AUC6 Plasma): 186 ng·h/mL
- AUC(0-inf) ([4]; plasma, read-out: AUC∞ Plasma): 192 ng·h/mL
- clearance ([4]; plasma, read-out: Cl Plasma): 86.9 mL/min/kg
- Tmax ([4]; plasma, read-out: Tmax Plasma): 1.2 min
- Vd ([4]; plasma, read-out: Vd Plasma): 2.09 L/kg
- Cmax Brain ([4]; brain): 1696 ng/mL
- T1/2 Brain ([4]; brain): 9.6 min
- T1/2 Plasma ([4]; plasma): 28.2 min

Compound: COc1ccc(Cl)c(C(=O)NCC23CC4CC(CC(F)(C4)C2)C3)c1 [Compound 3, 2-Chloro-N-((3-fluoroadamantan-1-yl)methyl)-5-methoxybenzamide]
- IC50 (hP2X7R): 17.4 ± 2.9 nM
- half-life at 1 μM [1]: 4.8 min
- fraction unbound at 4 h, 1 μM [2]: 0.0597
- fraction unbound at 4 h, 1 μM [3]: 0.0309
- AUC ([4]; brain, read-out: AUC6 Brain): 286 ng·h/mL
- AUC(0-inf) ([4]; brain, read-out: AUC∞ Brain): 291 ng·h/mL
- clearance ([4]; brain, read-out: Cl Brain): 57.3 mL/min/kg
- half-life [4, 5]: 25.8 min
- Tmax ([4]; brain, read-out: Tmax Brain): 1.2 min
- Vd ([4]; brain, read-out: Vd Brain): 0.92 L/kg
- Cmax ([4]; plasma): 1260 ng/mL
- AUC ([4]; plasma, read-out: AUC6 Plasma): 175 ng·h/mL
- AUC(0-inf) ([4]; plasma, read-out: AUC∞ Plasma): 178 ng·h/mL
- clearance ([4]; plasma, read-out: Cl Plasma): 93.4 mL/min/kg
- half-life [4, 6]: 25.8 min
- Tmax ([4]; plasma, read-out: Tmax Plasma): 1.2 min
- Vd ([4]; plasma, read-out: Vd Plasma): 1.8 L/kg
- Cmax Brain ([4]; brain): 2422 ng/mL

Compound: COc1ccc(Cl)c(C(=O)NCC23CC4(F)CC(F)(CC(F)(C4)C2)C3)c1 [Compound 1, 2-Chloro-N-((3,5,7-trifluoroadamantan-1-yl)methyl)-5-methoxybenzamide]
- half-life at 1 μM [1]: 46.8 min
- fraction unbound at 4 h, 1 μM [2]: 0.105
- fraction unbound at 4 h, 1 μM [3]: 0.0549
- AUC ([4]; brain, read-out: AUC6 Brain): 380 ng·h/mL
- AUC(0-inf) ([4]; brain, read-out: AUC∞ Brain): 386 ng·h/mL
- clearance ([4]; brain, read-out: Cl Brain): 43.2 mL/min/kg
- Tmax ([4]; brain, read-out: Tmax Brain): 1.2 min
- Vd ([4]; brain, read-out: Vd Brain): 2.1 L/kg
- Cmax ([4]; plasma): 1290 ng/mL
- AUC ([4]; plasma, read-out: AUC6 Plasma): 385 ng·h/mL
- AUC(0-inf) ([4]; plasma, read-out: AUC∞ Plasma): 399 ng·h/mL
- clearance ([4]; plasma, read-out: Cl Plasma): 41.8 mL/min/kg
- Tmax ([4]; plasma, read-out: Tmax Plasma): 1.2 min
- Vd ([4]; plasma, read-out: Vd Plasma): 2.75 L/kg
- Cmax Brain ([4]; brain): 1464 ng/mL
- T1/2 Brain ([4]; brain): 75.6 min
- T1/2 Plasma ([4]; plasma): 103 min

Compound: COc1ccc(Cl)c(C(=O)NCC23CC4CC(F)(CC(F)(C4)C2)C3)c1 [Compound 2, 2-Chloro-N-((3,5-difluoroadamantan-1-yl)methyl)-5-methoxybenzamide]
- IC50 (hP2X7R): 10 ± 4 nM
- half-life at 1 μM [1]: 18 min
- fraction unbound at 4 h, 1 μM [2]: 0.115
- fraction unbound at 4 h, 1 μM [3]: 0.085
- AUC ([4]; brain, read-out: AUC6 Brain): 209 ng·h/mL
- AUC(0-inf) ([4]; brain, read-out: AUC∞ Brain): 217 ng·h/mL
- clearance ([4]; brain, read-out: Cl Brain): 76.9 mL/min/kg
- half-life [4, 5]: 35.4 min
- Tmax ([4]; brain, read-out: Tmax Brain): 1.2 min
- Vd ([4]; brain, read-out: Vd Brain): 1.54 L/kg
- Cmax ([4]; plasma): 1720 ng/mL
- AUC ([4]; plasma, read-out: AUC6 Plasma): 196 ng·h/mL
- AUC(0-inf) ([4]; plasma, read-out: AUC∞ Plasma): 199 ng·h/mL
- clearance ([4]; plasma, read-out: Cl Plasma): 83.5 mL/min/kg
- half-life [4, 6]: 28.2 min
- Tmax ([4]; plasma, read-out: Tmax Plasma): 1.2 min
- Vd ([4]; plasma, read-out: Vd Plasma): 1.41 L/kg
- Cmax Brain ([4]; brain): 1838 ng/mL
